Reference: patent US20240368092A1, “2,4-Dihydro-3H-1,2,4-Triazol-3-One P2X7 Antagonists” (Breye Therapeutics ApS, priority 2021, published 2024)

Key:
Assay type in all cases: cell-based
mouseP2X7 = biological target: T1, mouseP2X7 (Mus musculus, UniProt Q9Z1M0); assay: P2X7 channel calcium-influx assay (Fluo-8, FLIPR TETRA), mouse P2X7; details: HEK-293 cells stably transfected with P2X7; Bz-ATP at EC80; low divalent cation buffer; read-out: mouseP2X7 (activity range)
T1 construct: expressed in transfected cells; host or cells: HEK-293
T1 sequence (Q9Z1M0 1-595): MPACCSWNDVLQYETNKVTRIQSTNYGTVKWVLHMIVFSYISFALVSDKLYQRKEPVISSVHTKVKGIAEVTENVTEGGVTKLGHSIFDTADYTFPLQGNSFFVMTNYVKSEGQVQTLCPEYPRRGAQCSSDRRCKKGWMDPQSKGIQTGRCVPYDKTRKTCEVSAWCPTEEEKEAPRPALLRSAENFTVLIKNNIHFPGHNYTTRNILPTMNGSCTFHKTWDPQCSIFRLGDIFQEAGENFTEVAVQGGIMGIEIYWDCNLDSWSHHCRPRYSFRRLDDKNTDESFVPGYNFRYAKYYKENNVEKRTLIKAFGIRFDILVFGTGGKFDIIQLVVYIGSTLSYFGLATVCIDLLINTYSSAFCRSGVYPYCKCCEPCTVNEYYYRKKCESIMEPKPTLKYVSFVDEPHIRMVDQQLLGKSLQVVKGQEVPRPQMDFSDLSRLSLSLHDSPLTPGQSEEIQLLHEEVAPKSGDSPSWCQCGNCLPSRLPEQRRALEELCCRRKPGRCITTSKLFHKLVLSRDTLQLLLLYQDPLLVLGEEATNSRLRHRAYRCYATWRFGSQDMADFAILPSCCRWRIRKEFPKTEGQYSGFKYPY
Summary of the method: (§1)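 HEK-293 cells stably expressing the respective species' P2X7, Fluo-8 NW loaded 1 h at RT in low divalent buffer (0.3 mM Ca2+, 0 mM Mg2+). Compound preincubated 5 min, then Bz-ATP at EC80; FLIPR calcium influx over 3 min. IC50 from % inhibition relative to reference antagonist A438079, reported as potency bins.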

humanP2X7 = biological target: T2, humanP2X7 (Homo sapiens, UniProt Q99572); assay: P2X7 channel calcium-influx assay (Fluo-8, FLIPR TETRA), human P2X7; details: HEK-293 cells stably transfected with P2X7; Bz-ATP at EC80; low divalent cation buffer; read-out: humanP2X7 (activity range)
T2 construct: expressed in transfected cells; host or cells: HEK-293
T2 sequence (Q99572 1-595): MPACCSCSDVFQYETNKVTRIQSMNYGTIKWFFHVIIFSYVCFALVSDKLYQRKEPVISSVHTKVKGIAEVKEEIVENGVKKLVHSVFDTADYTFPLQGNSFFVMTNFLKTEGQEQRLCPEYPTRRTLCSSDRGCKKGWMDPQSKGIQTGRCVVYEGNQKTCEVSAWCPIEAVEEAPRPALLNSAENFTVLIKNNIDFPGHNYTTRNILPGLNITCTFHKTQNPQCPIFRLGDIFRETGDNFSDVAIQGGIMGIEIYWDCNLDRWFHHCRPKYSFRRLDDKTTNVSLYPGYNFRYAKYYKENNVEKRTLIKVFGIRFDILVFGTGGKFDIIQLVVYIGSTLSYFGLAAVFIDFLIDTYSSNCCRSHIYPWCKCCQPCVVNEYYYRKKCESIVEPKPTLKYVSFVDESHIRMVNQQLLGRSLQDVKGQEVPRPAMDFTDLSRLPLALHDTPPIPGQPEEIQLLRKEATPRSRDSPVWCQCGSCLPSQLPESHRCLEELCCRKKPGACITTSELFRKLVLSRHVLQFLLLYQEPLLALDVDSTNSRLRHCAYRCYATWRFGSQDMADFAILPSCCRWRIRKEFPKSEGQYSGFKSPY
Summary of the method: as §1

human P2X7 channel = biological target: T3, human P2X7 channel (Homo sapiens, UniProt Q99572); assay: human P2X7 channel assay by automated patch-clamp (QPatch 16X); details: HEK-293 cells expressing P2X7; current evoked by 100 microM BzATP; whole-cell, held at -80 mV; read-out: human Q-Patch (activity range)
T3 construct: expressed in transfected cells; host or cells: HEK-293
T3 sequence (Q99572 1-595): T2 sequence (Q99572 1-595)
Summary of the method: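 Whole-cell patch clamp on HEK-293 cells expressing P2X7, room temperature, held at −80 mV, CsF internal and NaCl external (pH 7.4). Currents evoked by 100 microM BzATP, four controls then with compound at 1, 10, 100 and 1000 nM; peak inward current normalized, IC50 from dose-response fit, reported as potency bins.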

ratP2X7 = biological target: T4, ratP2X7 (Rattus norvegicus, UniProt Q64663); assay: P2X7 channel calcium-influx assay (Fluo-8, FLIPR TETRA), rat P2X7; details: HEK-293 cells stably transfected with P2X7; Bz-ATP at EC80; low divalent cation buffer; read-out: ratP2X7 (activity range)
T4 construct: expressed in transfected cells; host or cells: HEK-293
T4 sequence (Q64663 1-595): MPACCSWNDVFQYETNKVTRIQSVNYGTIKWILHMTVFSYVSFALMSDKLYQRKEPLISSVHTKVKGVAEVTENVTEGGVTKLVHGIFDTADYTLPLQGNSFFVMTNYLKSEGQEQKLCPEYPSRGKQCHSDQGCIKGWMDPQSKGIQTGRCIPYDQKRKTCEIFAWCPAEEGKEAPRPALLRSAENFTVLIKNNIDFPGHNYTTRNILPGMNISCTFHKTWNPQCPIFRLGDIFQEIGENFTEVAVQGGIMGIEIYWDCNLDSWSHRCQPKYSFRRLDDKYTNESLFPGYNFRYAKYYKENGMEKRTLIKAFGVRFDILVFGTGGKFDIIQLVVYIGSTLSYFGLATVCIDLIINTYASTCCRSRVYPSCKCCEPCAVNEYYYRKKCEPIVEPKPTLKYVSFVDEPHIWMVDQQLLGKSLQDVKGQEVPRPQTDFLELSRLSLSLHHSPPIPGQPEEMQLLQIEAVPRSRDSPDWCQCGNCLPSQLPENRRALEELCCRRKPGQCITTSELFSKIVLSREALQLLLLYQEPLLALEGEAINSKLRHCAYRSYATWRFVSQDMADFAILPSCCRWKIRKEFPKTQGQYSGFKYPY
Summary of the method: as §1

Row | IC50 (mouseP2X7) [nM] | IC50 (humanP2X7) [nM] | IC50 (human P2X7 channel) [nM] | IC50 (ratP2X7) [nM] | Compound
1 | 200 to 1000 | 200 to 1000 | 1000 to 10000 | < 200 | Cn1nc(Cc2ccccc2C(F)(F)F)n(CC2CCCCC2(C)C)c1=O (centres unmarked) [Example 23, 4-((2,2-dimethylcyclohexyl)methyl)-2-methyl-5-(2-(trifluoromethyl)benzyl)-2,4-dihydro-3H-1,2,4-triazol-3-one]
2 | 1000 to 10000 | 200 to 1000 | 100 to 1000 | < 200 | O=c1n(CC(F)(F)F)nc(CC2CCCCCC2)n1Cc1c(F)cccc1Cl [Example 61, 4-[(2-chloro-6-fluorophenyl)methyl]-5-(cycloheptylmethyl)-2-(2,2,2-trifluoroethyl)-2,4-dihydro-3H-1,2,4-triazol-3-one]
3 | 200 to 1000 | < 200 | 10 to 100 | < 200 | Cn1nc(Cc2ccc(F)cc2Cl)n(CC2CCCCCC2)c1=O [Example 11, 5-(2-chloro-4-fluorobenzyl)-4-(cycloheptylmethyl)-2-methyl-2,4-dihydro-3H-1,2,4-triazol-3-one]
4 | 1000 to 10000 | 200 to 1000 | 100 to 1000 | < 200 | O=c1n(CC2CC2)nc(Cc2c(F)cccc2Cl)n1CC1CCC(F)(F)C1 (centres unmarked) [Example 66, 5-[(2-chloro-6-fluorophenyl)methyl]-2-(cyclopropylmethyl)-4-[(3,3-difluorocyclopentyl)methyl]-2,4-dihydro-3H-1,2,4-triazol-3-one]
5 | 10000 to 30000 | 1000 to 10000 | 100 to 1000 | 1000 to 10000 | Cn1nc(CC2CCCCC2)n(Cc2ccccc2C(F)(F)F)c1=O [Example 25, 5-(cyclohexylmethyl)-2-methyl-4-(2-(trifluoromethyl)benzyl)-2,4-dihydro-3H-1,2,4-triazol-3-one]
6 | 1000 to 10000 | 1000 to 10000 | 1000 to 10000 | 200 to 1000 | CN1CCCCC1Cn1c(Cc2c(F)cccc2Cl)nn(CC(F)(F)F)c1=O (centres unmarked) [Example 68, 5-[(2-chloro-6-fluorophenyl)methyl]-4-[(1-methylpiperidin-2-yl)methyl]-2-(2,2,2-trifluoroethyl)-2,4-dihydro-3H-1,2,4-triazol-3-one]
7 | 200 to 1000 | < 200 | 10 to 100 | < 200 | Cn1nc(Cc2c(F)cccc2Cl)n(CC2CCCCC2(C)C)c1=O (centres unmarked) [Example 33, 5-(2-chloro-6-fluorobenzyl)-4-((2,2-dimethylcyclohexyl)methyl)-2-methyl-2,4-dihydro-3H-1,2,4-triazol-3-one]
8 | 200 to 1000 | 200 to 1000 | < 10 | < 200 | Cn1nc(Cc2c(F)cccc2Cl)n(CC2CCCCC2)c1=O [Example 2, 5-(2-chloro-6-fluorobenzyl)-4-(cyclohexylmethyl)-2-methyl-2,4-dihydro-3H-1,2,4-triazol-3-one]
9 | 1000 to 10000 | 200 to 1000 | 100 to 1000 | < 200 | Cn1nc(Cc2ccccc2Cl)n(CC2CCCCCC2)c1=O [Example 55, 5-[(2-chlorophenyl)methyl]-4-(cycloheptylmethyl)-2-methyl-2,4-dihydro-3H-1,2,4-triazol-3-one]
10 | < 200 | < 200 | 10 to 100 | < 200 | O=c1n(CC(F)F)nc(Cc2c(F)cccc2Cl)n1CC1CCC(F)(F)CC1 [Example 58, 5-[(2-chloro-6-fluorophenyl)methyl]-4-[(4,4-difluorocyclohexyl)methyl]-2-(2,2-difluoroethyl)-2,4-dihydro-3H-1,2,4-triazol-3-one]
11 | < 200 | < 200 | 10 to 100 | < 200 | O=c1n(CC(F)(F)F)nc(Cc2c(F)cccc2Cl)n1CC1CCCCCC1 [Example 67, 5-[(2-chloro-6-fluorophenyl)methyl]-4-(cycloheptylmethyl)-2-(2,2,2-trifluoroethyl)-2,4-dihydro-3H-1,2,4-triazol-3-one]
12 | 10000 to 30000 | 1000 to 10000 | 1000 to 10000 | 1000 to 10000 | Cn1nc(Cc2c(F)cccc2Cl)n(CC2(C)CCCCCC2)c1=O [Example 56, 5-[(2-chloro-6-fluorophenyl)methyl]-2-methyl-4-[(1-methylcycloheptyl)methyl]-2,4-dihydro-3H-1,2,4-triazol-3-one]
13 | 1000 to 10000 | 200 to 1000 | 10 to 100 | 200 to 1000 | Cn1nc(Cc2c(F)cccc2Cl)n(CCC2CCC(C)(C)CC2)c1=O [Example 16, 5-(2-chloro-6-fluorobenzyl)-4-(2-(4,4-dimethylcyclohexyl)ethyl)-2-methyl-2,4-dihydro-3H-1,2,4-triazol-3-one]
14 | 1000 to 10000 | 200 to 1000 | 100 to 1000 | 200 to 1000 | Cn1nc(Cc2ccc(F)cc2Cl)n(CCC2CCC(F)(F)CC2)c1=O [Example 36, 5-(2-chloro-4-fluorobenzyl)-4-(2-(4,4-difluorocyclohexyl)ethyl)-2-methyl-2,4-dihydro-3H-1,2,4-triazol-3-one]
15 | < 200 | < 200 | 10 to 100 | < 200 | O=c1n(CCC(F)(F)F)nc(Cc2c(F)cccc2Cl)n1CC1CCC(F)(F)CC1 [Example 57, 5-[(2-chloro-6-fluorophenyl)methyl]-4-[(4,4-difluorocyclohexyl)methyl]-2-(3,3,3-trifluoropropyl)-2,4-dihydro-3H-1,2,4-triazol-3-one]
16 | 10000 to 30000 | 10000 to 30000 | 1000 to 10000 | 10000 to 30000 | Cn1nc(Cc2ccc(F)cc2)n(Cc2cc(-c3ncc(F)cn3)ccc2Cl)c1=O [Example 29, 4-(2-chloro-5-(5-fluoropyrimidin-2-yl)benzyl)-5-(4-fluorobenzyl)-2-methyl-2,4-dihydro-3H-1,2,4-triazol-3-one]
17 | 10000 to 30000 | 10000 to 30000 | 1000 to 10000 | 10000 to 30000 | Cn1nc(Cc2c(F)cccc2Cl)n(CCN2CCOCC2)c1=O [Example 22, 5-(2-chloro-6-fluorobenzyl)-2-methyl-4-(2-morpholinoethyl)-2,4-dihydro-3H-1,2,4-triazol-3-one]
